{"source": "paper PMC10699586", "about": "(Journal of molecular biology, 2023)", "molecular_target": "T1, dysferlin C2A domain (dysf C2A) (Homo sapiens, UniProt O75923)", "T1 sequence (O75923 1-129)": "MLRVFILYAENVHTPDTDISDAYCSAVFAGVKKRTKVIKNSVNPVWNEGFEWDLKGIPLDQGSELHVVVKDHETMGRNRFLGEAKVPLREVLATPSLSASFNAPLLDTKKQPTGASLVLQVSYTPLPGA", "assay": "[…]-TROSY NMR titration, single-site fast-exchange fit", "type": "binding", "note": "Structures can show the parent of a compound that is named as a salt."}
{"smiles": "O=P(O)(O)O[C@@H]1[C@H](O)[C@H](O)[C@@H](OP(=O)(O)O)[C@H](OP(=O)(O)O)[C@H]1O", "note": "[IP3, D-myo-Inositol 1,4,5-tris-phosphate trisodium salt]", "values": [{"measurement": "Kd", "value": "12 to 15", "unit": "µM"}]}
